Assay results taken from patent US9266867B2, “Piperidinyl monocarboxylic acids as S1P1 receptor agonists” (BIOPROJET, priority 2011, dated 2016).
Structures can show the parent of a compound that is named as a salt. Where two headings read alike, the source gives them in different places.

Columns and labels:
hERG channel = hERG channel (Homo sapiens, UniProt Q12809); experiment: biochemical
Protocol: c) Evaluation of Activity for hERG Blockade Liability
HEK293 cells were stably transfected with the human hERG receptor gene. Binding assays were performed using 5 μg of cell membranes expressing hERG channel resuspended in 10 mM Hepes pH 7.4, 135 mM NaCl, 60 mM DL-Aspartic Acid Potassium, 1 mM EGTA, 0.8 mM MgCl2, 10 mM (D+) Glucose, 0.01% BSA, in a final volume of 200 μL. For [^3H] […] Non specific binding was estimated in the presence of 1 μM Astemizole. The reaction was terminated by filtration through Durapore BV 1.2 μm filters pre-soaked in 3% polyethyleneimine 10 minutes at room temperature. Filters were rinsed 2 times with 250 μL of ice cold 25 mM Tris-HCl pH 7.4 buffer. The filter-bound radioactivity was measured in a liquid scintillation counter with 50 μL of scintillation fluid. [^3H]
The hERG binding investigated by use of [^3H]

circulating lymphocytes = experiment: Assessment of lymphopenia in rats; assay type: in vivo; details: for Lymphopenia in rats % lymphopenia at given dose at 24 hrs: 0.3 mpk
Protocol: b) Assessment of Lymphopenia
Lymphopenia was assessed in vivo. Experiments were done in non-fasted/fasted Swiss mice and/or: Sprague Dawley rats, Wistar rats, Beagle dogs, Cynomolgus monkeys. Compounds were administered orally in suspension in carboxymethyl-cellulose 0.5-1% in water (W/V). Blood was taken on anesthetized/non anaesthetized animal (4% isoflurane) and samples collected in EDTA-containing vacuum tubes from 1 h 30 to 72 hours post administration for lymphopenia measurement.
After 10 minutes stirring, cells were counted using ABC Vet haemocytometer (Scil vet animal Care) for rodent and dog or ADVIA 120 hematology analyzer for monkeys. Pharmacodynamic effect was measured by the decrease in circulating lymphocytes by test item treatment in comparison with haematological parameters of control animals or versus predosing in the same animals.

EDG-1 = EDG-1 (Homo sapiens, UniProt P21453); experiment: 35S-GTPγS binding assay, EDG1 (S1P1); assay type: biochemical; parameters: expressed in transfected cells
EDG-1, sequence (P21453 whole entry): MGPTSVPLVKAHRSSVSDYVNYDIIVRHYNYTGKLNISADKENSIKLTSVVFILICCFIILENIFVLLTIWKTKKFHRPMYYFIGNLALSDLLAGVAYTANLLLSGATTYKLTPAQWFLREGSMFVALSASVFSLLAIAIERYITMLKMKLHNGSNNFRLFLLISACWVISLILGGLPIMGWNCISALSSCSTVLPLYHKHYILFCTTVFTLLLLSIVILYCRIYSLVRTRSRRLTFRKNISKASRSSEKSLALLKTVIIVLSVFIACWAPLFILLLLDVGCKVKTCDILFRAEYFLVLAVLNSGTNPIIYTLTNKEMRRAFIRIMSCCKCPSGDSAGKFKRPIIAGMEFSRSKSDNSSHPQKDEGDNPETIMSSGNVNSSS
Protocol: (§1) a) 35S-GTPγS Binding Assay GTP-γ-^35S binding was performed using […]15 μg protein of cell membranes suspended in 50 mM tris-HCl pH 7.5 containing 10 mM MgCl2, 100 mM NaCl and 10 μM GDP. The radioligand was 0.025 nM [^35S] GTP-γ-S and non specific binding determined in the presence of 10 μM non-radioactive GTP-γ-S. […] The maximal stimulation elicited by S1P was taken as a reference to define full or partial agonism and calculate the intrinsic activity (i.a.) of compounds.

EDG3 = EDG3 (Homo sapiens, UniProt Q99500); experiment: 35S-GTPγS binding assay, EDG3 (S1P3); assay type: biochemical; details: Table 1a
EDG3, sequence (Q99500 whole entry, species assumed): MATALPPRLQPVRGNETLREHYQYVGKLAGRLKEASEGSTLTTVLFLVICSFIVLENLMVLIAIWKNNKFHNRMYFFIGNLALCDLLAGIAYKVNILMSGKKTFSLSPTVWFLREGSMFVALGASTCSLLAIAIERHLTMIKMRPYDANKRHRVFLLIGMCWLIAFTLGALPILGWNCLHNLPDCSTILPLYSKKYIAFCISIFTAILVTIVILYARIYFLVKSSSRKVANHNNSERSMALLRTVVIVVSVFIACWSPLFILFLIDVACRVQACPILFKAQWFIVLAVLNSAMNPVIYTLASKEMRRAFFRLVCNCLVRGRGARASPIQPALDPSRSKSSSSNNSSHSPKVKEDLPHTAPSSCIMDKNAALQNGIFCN
Protocol: as §1

EDG5 = EDG5 (Homo sapiens, UniProt O95136); experiment: 35S-GTPγS binding assay, EDG5 (S1P2); assay type: biochemical; details: Table 1a
EDG5, sequence (O95136 whole entry, species assumed): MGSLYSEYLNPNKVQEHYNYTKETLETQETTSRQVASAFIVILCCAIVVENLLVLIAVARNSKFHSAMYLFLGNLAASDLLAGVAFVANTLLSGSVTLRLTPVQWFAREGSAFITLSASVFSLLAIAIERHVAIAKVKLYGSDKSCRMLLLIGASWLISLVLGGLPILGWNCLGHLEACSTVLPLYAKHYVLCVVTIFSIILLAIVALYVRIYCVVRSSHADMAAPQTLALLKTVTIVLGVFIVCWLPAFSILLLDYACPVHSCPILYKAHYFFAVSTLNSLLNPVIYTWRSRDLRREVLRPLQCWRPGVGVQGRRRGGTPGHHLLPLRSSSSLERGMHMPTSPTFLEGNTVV
Protocol: as §1

[1] = Table 1a, read-out: EC50 (nM) EDG1
[2] = comparative examples table, read-out: EDG1 EC50

hERG channel, sequence (Q12809 whole entry): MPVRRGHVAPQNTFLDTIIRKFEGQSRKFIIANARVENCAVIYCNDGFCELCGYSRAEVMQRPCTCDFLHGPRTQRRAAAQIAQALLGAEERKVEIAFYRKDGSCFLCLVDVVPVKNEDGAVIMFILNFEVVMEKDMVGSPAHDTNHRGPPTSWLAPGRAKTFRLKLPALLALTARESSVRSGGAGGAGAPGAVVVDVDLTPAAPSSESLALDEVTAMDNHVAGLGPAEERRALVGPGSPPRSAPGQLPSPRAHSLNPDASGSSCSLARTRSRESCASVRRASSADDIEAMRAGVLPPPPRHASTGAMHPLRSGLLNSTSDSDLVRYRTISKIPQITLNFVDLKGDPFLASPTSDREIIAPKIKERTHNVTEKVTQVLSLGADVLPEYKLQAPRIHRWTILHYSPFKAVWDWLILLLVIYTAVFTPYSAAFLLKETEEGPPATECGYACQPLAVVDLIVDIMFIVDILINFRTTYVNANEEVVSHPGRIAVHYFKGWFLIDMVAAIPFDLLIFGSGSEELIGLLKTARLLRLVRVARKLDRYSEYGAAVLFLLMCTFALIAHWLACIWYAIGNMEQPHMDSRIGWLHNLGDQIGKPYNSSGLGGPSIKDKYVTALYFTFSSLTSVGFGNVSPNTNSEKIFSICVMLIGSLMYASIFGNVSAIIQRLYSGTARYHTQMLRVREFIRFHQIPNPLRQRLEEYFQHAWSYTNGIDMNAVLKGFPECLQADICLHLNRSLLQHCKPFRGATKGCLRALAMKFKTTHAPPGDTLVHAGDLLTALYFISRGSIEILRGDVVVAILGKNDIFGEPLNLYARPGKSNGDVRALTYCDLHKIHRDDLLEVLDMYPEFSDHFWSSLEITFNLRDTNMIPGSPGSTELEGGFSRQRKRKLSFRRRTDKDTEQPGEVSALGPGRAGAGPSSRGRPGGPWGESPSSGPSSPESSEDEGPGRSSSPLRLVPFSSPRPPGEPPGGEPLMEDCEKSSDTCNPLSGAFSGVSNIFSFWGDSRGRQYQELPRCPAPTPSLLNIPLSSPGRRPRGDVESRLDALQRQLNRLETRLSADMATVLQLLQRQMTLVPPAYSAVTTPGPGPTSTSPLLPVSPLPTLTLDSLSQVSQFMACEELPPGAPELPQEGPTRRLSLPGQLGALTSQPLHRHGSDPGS

| EC50 (EDG-1; [1]) | EC50 (EDG-1; Table 1b, read-out: EDG1 EC50) | SMILES | Ki (hERG channel) | other results |
| --- | --- | --- | --- | --- |
| < 1 nM | < 1 nM | C=CCC1(C(=O)O)CCN(Cc2ccc(-c3noc(-c4ccc(CC(C)C)c(Cl)c4)n3)cc2)CC1 [Example 12, 4-allyl-1-{4-[5-(3-chloro-4-isobutylphenyl)-[1,2,4]-oxadiazol-3-yl]benzyl}piperidine-4-carboxylic acid tert-butyl amine salt] | > 10000 nM | Lymphopenia in rats % lymphopenia at given dose at 24 hrs (circulating lymphocytes; Wistar female): 66% (0.3 mpk); EC50 (EDG3): > 1000 nM; EC50 (EDG5): > 1000 nM |
|  | < 1 nM | COc1ccc(CC2(C(=O)O)CCN(Cc3ccc(-c4noc(-c5ccc(C6CCCCC6)c(Cl)c5)n4)cc3)CC2)cc1 [Example 53, 1-{4-[5-(3-Chloro-4-cyclohexylphenyl)-[1,2,4]-oxadiazol-3-yl]-benzyl}-4-(4-methoxy-benzyl)-piperidine-4-carboxylic acid tert-butyl amine salt] |  |  |
|  | < 1 nM | CCCc1ccc(-c2nc(-c3ccc(CN4CCC(C)(C(=O)O)CC4)cc3)no2)cc1Cl [Example 46, 1-{4-[5-(3-Chloro-4-propyl-phenyl)-[1,2,4]-oxadiazol-3-yl]-benzyl}-4-methyl-piperidine-4-carboxylic acid tert-butyl amine salt] |  |  |
|  | < 1 nM | O=C(O)C1(Cc2ccccn2)CCN(Cc2ccc(-c3noc(-c4ccc(C5CCCCC5)c(Cl)c4)n3)cc2)CC1 [Example 56, 1-{4-[5-(3-Chloro-4-cyclohexyl-phenyl)-[1,2,4]-oxadiazol-3-yl]-benzyl}-4-pyridin-2-ylmethyl-piperidine-4-carboxylic acid tert-butyl amine salt] |  |  |
|  | < 1 nM | COc1ccccc1CC1(C(=O)O)CCN(Cc2ccc(-c3noc(-c4ccc(CC(C)C)c(Cl)c4)n3)cc2)CC1 [Example 28, 1-{4-[5-(3-Chloro-4-isobutyl-phenyl)-[1,2,4]-oxadiazol-3-yl]-benzyl}-4-(2-methoxy-benzyl)-piperidine-4-carboxylic acid tert-butyl amine salt] |  |  |
| < 1 nM | < 1 nM | CCCC1(C(=O)O)CCN(Cc2ccc(-c3noc(-c4ccc(CC(C)C)c(Cl)c4)n3)cc2)CC1 [Example 13, 1-{4-[5-(3-chloro-4-isobutylphenyl)-[1,2,4]-oxadiazol-3-yl]benzyl}-4-propylpiperidine-4-carboxylic acid tert-butyl amine salt] | > 10000 nM | EC50 (EDG3): > 1000 nM; EC50 (EDG5): > 1000 nM |
| < 1 nM | < 1 nM | CC1(C(=O)O)CCN(Cc2ccc(-c3noc(-c4ccc(C5CCCC5)c(Cl)c4)n3)cc2)CC1 [Example 7, 1-{4-[5-(3-chloro-4-cyclopentylphenyl)-[1,2,4]-oxadiazol-3-yl]benzyl}-4-methylpiperidine-4-carboxylic acid] | > 10000 nM | EC50 (EDG3): 581 nM; EC50 (EDG5): > 1000 nM |
|  | < 1 nM | O=C(O)C1(Cc2ccccn2)CCN(Cc2ccc(-c3noc(-c4ccc(-c5ccccc5)c(Cl)c4)n3)cc2)CC1 [Example 50, 1-{4-[5-(2-Chloro-biphenyl-4-yl)-[1,2,4]-oxadiazol-3-yl]-benzyl}-4-pyridin-2-ylmethyl-piperidine-4-carboxylic acid tert-butyl amine salt] |  |  |
|  | < 10 nM | CC(C)Cc1ccc(-c2nc(-c3ccc(CN4CCC(CCN5CCOCC5)(C(=O)O)CC4)cc3)no2)cc1Cl [Example 64, 1-{4-[5-(3-Chloro-4-isobutyl-phenyl)-[1,2,4]-oxadiazol-3-yl]-benzyl}-4-(2-morpholin-4-yl-ethyl)-piperidine-4-carboxylic acid] |  |  |
|  | < 1 nM | CCC1(C(=O)O)CCN(Cc2ccc(-c3noc(-c4ccc(C5CCCCC5)c(Cl)c4)n3)cc2)CC1 [Example 54, 1-{4-[5-(3-Chloro-4-cyclohexylphenyl)-[1,2,4]-oxadiazol-3-yl]-benzyl}-4-ethyl-piperidine-4-carboxylic acid tert-butyl amine salt] |  |  |
|  | < 1 nM | CCOCCOCC1(C(=O)O)CCN(Cc2ccc(-c3noc(-c4ccc(CC(C)C)c(Cl)c4)n3)cc2)CC1 [Example 59, 1-{4-[5-(3-Chloro-4-isobutyl-phenyl)-[1,2,4]-oxadiazol-3-yl]-benzyl}-4-(2-ethoxy-ethoxymethyl)-piperidine-4-carboxylic acid tert-butyl amine salt] |  |  |
|  | < 1 nM | COCCOCC1(C(=O)O)CCN(Cc2ccc(-c3noc(-c4ccc(OC(C)C)c(Cl)c4)n3)cc2)CC1 [Example 47, 1-{4-[5-(3-Chloro-4-isopropoxy-phenyl)-[1,2,4]-oxadiazol-3-yl]-benzyl}-4-(2-methoxy-ethoxymethyl)-piperidine-4-carboxylic acid tert-butyl amine salt] |  |  |

The remaining lines, values behind:

| SMILES | EC50 (EDG-1; [1]) | EC50 (EDG-1; Table 1b, read-out: EDG1 EC50) | Ki (hERG channel) | other results |
| --- | --- | --- | --- | --- |
| CC(C)Cc1ccc(-c2nc(-c3ccc(CN4CCC(C)(C(=O)O)CC4)cc3)no2)cc1Cl [Example 2, 1-{4-[5-(3-chloro-4-isobutylphenyl)-[1,2,4]-oxadiazol-3-yl]benzyl}-4-methylpiperidine-4-carboxylic acid, tert-butylamine salt] | < 1 nM | < 1 nM | > 10000 nM | Lymphopenia in rats % lymphopenia at given dose at 24 hrs (circulating lymphocytes; Sprague-Dawley female): 76% (0.3 mpk) |
| COCC1(C(=O)O)CCN(Cc2ccc(-c3noc(-c4ccc(C5CCCC5)c(Cl)c4)n3)cc2)CC1 [Example 9, 1-{4-[5-(3-chloro-4-cyclopentylphenyl)-[1,2,4]-oxadiazol-3-yl]benzyl}-4-methoxymethylpiperidine-4-carboxylic acid tert-butyl amine salt] | < 1 nM | < 1 nM | > 10000 nM | EC50 (EDG3): > 1000 nM; EC50 (EDG5): > 1000 nM |
| CCC1(C(=O)O)CCN(Cc2ccc(-c3noc(-c4ccc(CC(C)C)c(Cl)c4)n3)cc2)CC1 [Example 11, 1-{4-[5-(3-chloro-4-isobutylphenyl)-[1,2,4]-oxadiazol-3-yl]benzyl}-4-ethylpiperidine-4-carboxylic acid tert-butyl amine salt] | < 1 nM | < 1 nM | > 10000 nM | Lymphopenia in rats % lymphopenia at given dose at 24 hrs (circulating lymphocytes; Wistar female): 75% (0.3 mpk); EC50 (EDG3): 198 nM; EC50 (EDG5): > 1000 nM |
| CC1(C(=O)O)CCN(Cc2ccc(-c3noc(-c4ccc(C5CCCCC5)c(Cl)c4)n3)cc2)CC1 [Example 1, 1-{4-[5-(3-chloro-4-cyclohexylphenyl)-[1,2,4]-oxadiazol-3-yl]benzyl}-4-methylpiperidine-4-carboxylic acid] | < 1 nM | < 1 nM | > 10000 nM | EC50 (EDG3): > 1000 nM; EC50 (EDG5): > 1000 nM |
| O=C(O)C1CCN(Cc2ccc(-c3noc(-c4ccc(-c5ccccc5)c(F)c4)n3)cc2)CC1 [compound 1] |  |  |  | Lymphopenia in rats % lymphopenia at 1 mpk/p.o dose 8 Hrs (circulating lymphocytes): 18%; Lymphopenia in rats % lymphopenia at 1 mpk/p.o dose 24 Hrs (circulating lymphocytes): −54%; EC50 (EDG-1; [2]): 11.7 to 19.8 nM |
| CC(C)Cc1ccc(-c2nc(-c3ccc(CN4CCC(C(=O)O)CC4)cc3)no2)cc1.Cl [compound 2] |  |  |  | Lymphopenia in rats % lymphopenia at 1 mpk/p.o dose 8 Hrs (circulating lymphocytes): −25%; Lymphopenia in rats % lymphopenia at 1 mpk/p.o dose 24 Hrs (circulating lymphocytes): −101%; EC50 (EDG-1; [2]): 57.2 nM |
| CC(C)Cc1ccc(-c2nc(-c3ccc(CN4CCC[C@@H](C(=O)O)C4)cc3)no2)cc1 [compound 3] |  |  |  | Lymphopenia in rats % lymphopenia at 1 mpk/p.o dose 8 Hrs (circulating lymphocytes): −24%; Lymphopenia in rats % lymphopenia at 1 mpk/p.o dose 24 Hrs (circulating lymphocytes): −58%; EC50 (EDG-1; [2]): 56.6 nM |
| CCCC1(C(=O)O)CCN(Cc2ccc(-c3noc(-c4ccc(-c5ccccc5)c(Cl)c4)n3)cc2)CC1 [Example 18, 1-{4-[5-(2-Chlorobiphenyl-4-yl)-[1,2,4]-oxadiazol-3-yl]-benzyl}-4-propylpiperidine-4-carboxylic acid tert-butyl amine salt] |  | < 1 nM |  |  |
| CC(C)Cc1ccc(-c2nc(-c3ccc(CN4CCC(CC5CC5)(C(=O)O)CC4)cc3)no2)cc1Cl [Example 63, 1-{4-[5-(3-Chloro-4-isobutyl-phenyl)-[1,2,4]-oxadiazol-3-yl]-benzyl}-4-cyclopropylmethyl-piperidine-4-carboxylic acid tert-butyl amine salt] |  | < 1 nM |  |  |
| Cl.O=C(O)C1CCN(Cc2ccc(-c3noc(-c4ccc(C5CCCCC5)cc4)n3)cc2)CC1 [compound 4] |  |  |  | Lymphopenia in rats % lymphopenia at 1 mpk/p.o dose 8 Hrs (circulating lymphocytes): 2%; Lymphopenia in rats % lymphopenia at 1 mpk/p.o dose 24 Hrs (circulating lymphocytes): −57%; EC50 (EDG-1; [2]): 13.9 nM |
| CC(C)Cc1ccc(-c2nc(-c3ccc(CN4CCC(COC(C)C)(C(=O)O)CC4)cc3)no2)cc1Cl [Example 60, 1-{4-[5-(3-Chloro-4-isobutyl-phenyl)-[1,2,4]-oxadiazol-3-yl]-benzyl}-4-isopropoxy methyl-piperidine-4-carboxylic acid tert-butyl amine salt] |  | < 1 nM |  |  |
